Results published in publication PMC7352759, “S(+)-(2E)-N-(2-Hydroxypropyl)-3-Phenylprop-2-Enamide (KM-568): A Novel Cinnamamide Derivative with Anticonvulsant Activity in Animal Models of Seizures and Epilepsy” (International Journal of Molecular Sciences, 2020).

Assays:
[1] = system: LTG-resistant amygdala kindled Sprague–Dawley rats; assay: Lamotrigine (LTG) resistant amygdala kindled seizure model in rats; assay type: in vivo; details: 0.25 h
Protocol: Anesthetized male Sprague–Dawley rats (250–300 g) were surgically implanted with an electrode into the left amygdala. After a one-week recovery period, kindling was initiated. A suprathreshold stimulus (200 µA) was delivered daily until all animals display stage 4–5 seizures. Lamotrigine at 5 mg/kg i.p. was also administered daily during kindling acquisition. One week after all animals were kindled, the animals received a challenge dose of lamotrigine (30 mg/kg, i.p.) to confirm LTG-resistance. On the 4th day, compound KM-568 was administered i.p. at the doses 20, 40, and 80 mg/kg. Fifteen minutes after administration, rats were challenged with the kindling stimulus. Results were provided as seizure score (according to Racine scale, protection defined as less than 3) and after discharge duration (in sec).

[2] = system: rat cerebral cortex GABA receptor; assay: GABA receptor radioligand binding ([3H]GABA); details: 10 µM; non-selective agonist radioligand
Protocol: In order to identify molecular mechanism of action, KM-568 was tested at 10 µM in three radioligand binding assays: rat cerebral cortex GABA receptor non-selective agonist radioligand, AMPA (α-amino-3-hydroxy-5-methyl-4-isoxazolepropionic acid) receptor agonist radioligand, and NMDA (N-methyl-D-aspartate) receptor antagonist radioligand as well as one functional assay involving a human recombinant TRPV1 receptor expressed in CHO cells (agonist and antagonist effects).
Tests were performed by Eurofins Cerep (Eurofins CEREP SA, Celle-Lévescault, France) as a commercial service. In radioligand assays, rat cerebral cortex GABA receptor as well as rat cerebral cortex AMPA (α-amino-3-hydroxy-5-methyl-4-isoxazolepropionic acid) and NMDA (N-methyl-D-aspartate) receptors with 10 nM [^3H]GABA, 8 nM [^3H]AMPA, and 5 nM [^3H]CGP39653, respectively, were used. The results were detected by means of scintillation counting. In functional assays, a human recombinant TRPV1 receptor expressed in Chinese hamster ovary (CHO) cells with 1 µM capsaicin or 30 nM capsazepine were used. Fluorimetry was used as a detection method.

[3] = system: HepG2 cells; assay: LDH cytotoxicity assay, HepG2; assay type: cell-based, human; details: HepG2, up to 100 µM, 24 h
Protocol: Human liver cancer HepG2 cell line (ATCC HB8065) and rat cardiomyoblast cell line H9c2 (ATCC-CRL1446) were purchased in ATCC (American Type Culture Collection, Manassas, VA, USA). The cells were cultured in standard conditions (37 °C, 5% CO2) in EMEM medium (ATCC, Manassas, VA, USA), supplemented with 10% FBS (Gibco, Waltham, MA, USA) and antibiotics (1% streptomycin/penicillin mixture, Sigma–Aldrich, Darmstadt, Germany) or DMEM high glucose (ATCC, Manassas, VA, USA) supplemented with 10% FBS (Gibco, Waltham, MA, USA) and antibiotics (1% streptomycin/penicillin mixture, Sigma–Aldrich, Darmstadt, Germany), respectively.
Cells were seeded at density 5 × 10^4 cells/per well. After 24 h, KM-568 and reference standard DOX were added to final concentrations of 0.1; 0.5; 1.0; 10; 25; 50; 100; 200 µM. After 24 h incubation, plates were centrifuged (400 g, 2 min) and 50 μL of the supernatant was transferred into the corresponding 96-well plate. […] Next, stop solution was added and absorbance was measured at 490 nm on a multi-well plate reader (Spectra Max iD3, Molecular Devices, San Jose, CA, USA). Cytotoxicity was determined as follows: cytotoxicity (%)=[(compound LDH activity – spontaneous LDH activity)/(maximum LDH activity – spontaneous LDH activity)] × 100. […]

[4] = system: C57/Bl6 mice; assay: Mesial temporal lobe epilepsy model (MTLE); assay type: in vivo; details: 114 mg/kg i.p., recording period 20–40 min
Protocol: Adult male C57/Bl6 mice were placed in a stereotactic frame, injected with kainate (1 nmol/100 nL) and implanted with 1 bipolar electrode in the dorsal hippocampus. The animals were then allowed to recover for four weeks. Four animals chosen for tests were intraperitoneally injected with KM-568 at 114 mg/kg (ED50 obtained in 6-Hz 44 mA test). Digital EEG recordings were performed on freely moving animals for 20 min pre-injection (reference period) and from 20 to 40 min after injection (10 min before and 10 min after peak time of effect in a 6-Hz 44 mA test). Animals are used as their own controls. In the testing periods, spontaneous recurrent hippocampal paroxysmal discharges (HPD) were counted.

C[C@H](O)CNC(=O)/C=C/c1ccccc1 [KM-568, S(+)-(2E)-N-(2-hydroxypropyl)-3-phenylprop-2-enamide]
ED50 ([1]; Rattus norvegicus, ip): 58.6 mg/kg
Results (protected/tested animals; protection = Racine score <3) ([1]; i.p., 20 mg/kg): 0/7
Seizure Duration ± SD ([1]; i.p., 20 mg/kg): 140 ± 17.55 s
Seizure Score ± SEM ([1]; i.p., 20 mg/kg): 5.0 ± 0.0
Results (protected/tested animals; protection = Racine score <3) ([1]; i.p., 40 mg/kg): 2/7
Seizure Duration ± SD ([1]; i.p., 40 mg/kg): 94.71 ± 8.72 s
Seizure Score ± SEM ([1]; i.p., 40 mg/kg): 3.86 ± 0.74
Results (protected/tested animals; protection = Racine score <3) ([1]; i.p., 80 mg/kg): 5/7
Seizure Duration ± SD ([1]; i.p., 80 mg/kg): 56.57 ± 12.34 s
Seizure Score ± SEM ([1]; i.p., 80 mg/kg): 2.86 ± 0.63
ED50, lamotrigine-resistant amygdala kindled rat model ([1]; i.p.): 58.69 (38.09–120.15) mg/kg
Effect in GABA receptor radioligand binding assay [2]: No significant effects
cytotoxic effect, LDH assay [3]: no cytotoxic effect
Effect (% of Baseline), HPD counts [4]: 73.9 % of Baseline
Mean HPD Counts [4]: 12.8
